Assays:
Conditions in all cases: main component drawn
B. subtilis 168 [1] = experiment: fitness (endpoint OD595 vs no drug) (fraction); higher = more growth
Method in brief: (§1)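 Bacterial growth was followed in 384-well plates seeded at OD595 0.01, with 30 µl per well, or 55 µl for S. pneumoniae, in TSB, LB Lennox or CY at 37 °C. OD595 was read every 30 min for 14 h, and each reading had the first reading subtracted as background. Fitness is the background-corrected optical density at entry into stationary phase divided by the robust mean of the no-drug control wells. This ratio is capped at 1.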

S. aureus Newman [2] = experiment: as above
Method in brief: as §1

S. pneumoniae D39V [3] = experiment: as above
Method in brief: as §1

B. subtilis 168 [4] = experiment: Bliss interaction score (quartile over a dose matrix) (fitness difference); higher = more antagonism (negative = synergy)
Method in brief: (§2)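 Each OD595 reading at entry into stationary phase was scaled to the robust mean of the untreated wells on its plate, with a ceiling of 1. These ratios define fitness, and single-drug fitness was inferred from combinations. The Bliss score compares observed fitness with the product-based expectation and is reported as quartiles across all replicate types, technical, biological and donor/recipient.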

S. aureus DSM 20231 = experiment: as above
Method in brief: as §2

S. aureus Newman [5] = experiment: as above
Method in brief: as §2

S. pneumoniae D39V [6] = experiment: as above
Method in brief: as §2
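For Bliss interaction score (quartile over a dose matrix) in this document: first quartile when negative (synergy) and third quartile when positive (antagonism).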

CNC(C)C1CCC(N)C(OC2C(N)CC(N)C(OC3OCC(C)(O)C(NC)C3O)C2O)O1 (centres undefined) [Gentamicin] + COc1c(N2C[C@@H]3CCCN[C@@H]3C2)c(F)cc2c(=O)c(C(=O)O)cn(C3CC3)c12 [Moxifloxacin]
Conditions | fitness
B. subtilis 168 [1], first compound 0.0625 µg/mL, partner 0.0625 µg/mL | 0.0368
B. subtilis 168 [1], first compound 0.0625 µg/mL, partner 0.125 µg/mL | 0.048
B. subtilis 168 [1], first compound 0.0625 µg/mL, partner 2 µg/mL | 0.0515
B. subtilis 168 [1], first compound 0.0625 µg/mL, partner 4 µg/mL | 0.0389
B. subtilis 168 [1], first compound 0.0625 µg/mL, partner 8 µg/mL | 0.0196
B. subtilis 168 [1], first compound 0.125 µg/mL, partner 0.0625 µg/mL | 0.0582
B. subtilis 168 [1], first compound 0.125 µg/mL, partner 0.125 µg/mL | 0.0573
B. subtilis 168 [1], first compound 0.125 µg/mL, partner 2 µg/mL | 0.0401
B. subtilis 168 [1], first compound 0.125 µg/mL, partner 4 µg/mL | 0.0418
B. subtilis 168 [1], first compound 0.125 µg/mL, partner 8 µg/mL | 0.0222
B. subtilis 168 [1], first compound 0.25 µg/mL, partner 0.0312 µg/mL | 0.0645
B. subtilis 168 [1], first compound 0.25 µg/mL, partner 0.0625 µg/mL | 0.069
B. subtilis 168 [1], first compound 0.25 µg/mL, partner 0.125 µg/mL | 0.069
B. subtilis 168 [1], first compound 0.25 µg/mL, partner 2 µg/mL | 0.0498
B. subtilis 168 [1], first compound 0.25 µg/mL, partner 4 µg/mL | 0.0517
B. subtilis 168 [1], first compound 0.25 µg/mL, partner 8 µg/mL | 0.0301
S. aureus Newman [2], first compound 0.375 µg/mL, partner 0.0075 µg/mL | 0.733
S. aureus Newman [2], first compound 0.375 µg/mL, partner 0.015 µg/mL | 0.515
S. aureus Newman [2], first compound 0.375 µg/mL, partner 0.03 µg/mL | 0.153
S. aureus Newman [2], first compound 0.5 µg/mL, partner 0.0075 µg/mL | 0.801
S. aureus Newman [2], first compound 0.5 µg/mL, partner 0.015 µg/mL | 0.74
S. aureus Newman [2], first compound 0.75 µg/mL, partner 0.0075 µg/mL | 0.722
S. aureus Newman [2], first compound 0.75 µg/mL, partner 0.015 µg/mL | 0.544
S. aureus Newman [2], first compound 0.75 µg/mL, partner 0.03 µg/mL | 0.189
S. aureus Newman [2], first compound 1 µg/mL, partner 0.0075 µg/mL | 0.841
S. aureus Newman [2], first compound 1 µg/mL, partner 0.015 µg/mL | 0.776
S. aureus Newman [2], first compound 1.5 µg/mL, partner 0.015 µg/mL | 0.195
S. aureus Newman [2], first compound 1.5 µg/mL, partner 0.03 µg/mL | 0.0456
S. aureus Newman [2], first compound 2 µg/mL, partner 0.0075 µg/mL | 0.879
S. aureus Newman [2], first compound 2 µg/mL, partner 0.015 µg/mL | 0.777
S. pneumoniae D39V [3], first compound 2 µg/mL, partner 0.005 µg/mL | ≥ 1
S. pneumoniae D39V [3], first compound 2 µg/mL, partner 0.01 µg/mL | 0.987
S. pneumoniae D39V [3], first compound 2 µg/mL, partner 0.02 µg/mL | 0.949
S. pneumoniae D39V [3], first compound 2 µg/mL, partner 0.0312 µg/mL | 0.0909
S. pneumoniae D39V [3], first compound 2 µg/mL, partner 0.0625 µg/mL | 0.0352
S. pneumoniae D39V [3], first compound 2 µg/mL, partner 0.125 µg/mL | 0.0208
S. pneumoniae D39V [3], first compound 4 µg/mL, partner 0.005 µg/mL | 0.999
S. pneumoniae D39V [3], first compound 4 µg/mL, partner 0.01 µg/mL | 0.998
S. pneumoniae D39V [3], first compound 4 µg/mL, partner 0.02 µg/mL | 0.987
S. pneumoniae D39V [3], first compound 4 µg/mL, partner 0.0312 µg/mL | 0.062
S. pneumoniae D39V [3], first compound 4 µg/mL, partner 0.0625 µg/mL | 0.0383
S. pneumoniae D39V [3], first compound 4 µg/mL, partner 0.125 µg/mL | 0.0445
S. pneumoniae D39V [3], first compound 8 µg/mL, partner 0.005 µg/mL | 0.972
S. pneumoniae D39V [3], first compound 8 µg/mL, partner 0.01 µg/mL | 0.972
S. pneumoniae D39V [3], first compound 8 µg/mL, partner 0.02 µg/mL | 0.925
S. pneumoniae D39V [3], first compound 8 µg/mL, partner 0.0312 µg/mL | 0.0628
S. pneumoniae D39V [3], first compound 8 µg/mL, partner 0.0625 µg/mL | 0.0435
S. pneumoniae D39V [3], first compound 8 µg/mL, partner 0.125 µg/mL | 0.0398

Conditions | Bliss interaction score
B. subtilis 168 [4] | 0.0561
S. aureus DSM 20231 | 0.0845
S. aureus Newman [5] | 0.0666
S. pneumoniae D39V [6] | -0.0566

CNC(C)C1CCC(N)C(OC2C(N)CC(N)C(OC3OCC(C)(O)C(NC)C3O)C2O)O1 (centres undefined) [Gentamicin] + COc1ccc(C[C@H](N)C(=O)N[C@H]2[C@@H](O)[C@H](n3cnc4c(N(C)C)ncnc43)O[C@@H]2CO)cc1 [Puromycin]
Conditions | fitness
B. subtilis 168 [1], first compound 0.0625 µg/mL, partner 0.39 µg/mL | 0.889
B. subtilis 168 [1], first compound 0.25 µg/mL, partner 0.39 µg/mL | 0.0531
B. subtilis 168 [1], first compound 0.25 µg/mL, partner 0.78 µg/mL | 0.0448
B. subtilis 168 [1], first compound 0.25 µg/mL, partner 1.56 µg/mL | 0.0402
S. aureus Newman [2], first compound 0.5 µg/mL, partner 0.39 µg/mL | 0.979
S. aureus Newman [2], first compound 0.5 µg/mL, partner 0.78 µg/mL | ≥ 1
S. aureus Newman [2], first compound 0.5 µg/mL, partner 1.56 µg/mL | ≥ 1
S. aureus Newman [2], first compound 1 µg/mL, partner 0.39 µg/mL | ≥ 1
S. aureus Newman [2], first compound 1 µg/mL, partner 0.78 µg/mL | ≥ 1
S. aureus Newman [2], first compound 1 µg/mL, partner 1.56 µg/mL | ≥ 1
S. aureus Newman [2], first compound 2 µg/mL, partner 0.39 µg/mL | 0.994
S. aureus Newman [2], first compound 2 µg/mL, partner 0.78 µg/mL | ≥ 1
S. aureus Newman [2], first compound 2 µg/mL, partner 1.56 µg/mL | ≥ 1
S. pneumoniae D39V [3], first compound 2 µg/mL, partner 1 µg/mL | 0.955
S. pneumoniae D39V [3], first compound 2 µg/mL, partner 2 µg/mL | 0.915
S. pneumoniae D39V [3], first compound 4 µg/mL, partner 1 µg/mL | 0.984
S. pneumoniae D39V [3], first compound 8 µg/mL, partner 1 µg/mL | 0.906
S. pneumoniae D39V [3], first compound 8 µg/mL, partner 4 µg/mL | 0.19

fitness, S. aureus Newman [2], one replicate
Conditions | first compound 0.375 µg/mL | first compound 0.75 µg/mL | first compound 1.5 µg/mL
partner 0.39 µg/mL | ≥ 1 | ≥ 1 | 0.973
partner 0.78 µg/mL | ≥ 1 | ≥ 1 | ≥ 1
partner 1.56 µg/mL | ≥ 1 | ≥ 1 | ≥ 1

Conditions | Bliss interaction score
B. subtilis 168 [4] | -0.204
S. aureus DSM 20231 | -0.278
S. aureus Newman [5] | 0.0455
S. pneumoniae D39V [6] | -0.289

CNC(C)C1CCC(N)C(OC2C(N)CC(N)C(OC3OCC(C)(O)C(NC)C3O)C2O)O1 (centres undefined) [Gentamicin] + C[n+]1ccc(-c2cc[n+](C)cc2)cc1 [Paraquat]
Conditions | fitness
B. subtilis 168 [1], first compound 0.0625 µg/mL, partner 1.25 µg/mL | 0.865
B. subtilis 168 [1], first compound 0.0625 µg/mL, partner 2.5 µg/mL | 0.864
B. subtilis 168 [1], first compound 0.25 µg/mL, partner 1.25 µg/mL | 0.203
B. subtilis 168 [1], first compound 0.25 µg/mL, partner 2.5 µg/mL | 0.0485
B. subtilis 168 [1], first compound 0.25 µg/mL, partner 5 µg/mL | 0.0561
S. aureus Newman [2], first compound 0.5 µg/mL, partner 1.25 µg/mL | 0.957
S. aureus Newman [2], first compound 0.5 µg/mL, partner 2.5 µg/mL | 0.953
S. aureus Newman [2], first compound 0.5 µg/mL, partner 5 µg/mL | 0.928
S. aureus Newman [2], first compound 1 µg/mL, partner 1.25 µg/mL | 0.981
S. aureus Newman [2], first compound 1 µg/mL, partner 2.5 µg/mL | ≥ 1
S. aureus Newman [2], first compound 1 µg/mL, partner 5 µg/mL | 0.992
S. aureus Newman [2], first compound 2 µg/mL, partner 1.25 µg/mL | ≥ 1
S. aureus Newman [2], first compound 2 µg/mL, partner 2.5 µg/mL | ≥ 1
S. aureus Newman [2], first compound 2 µg/mL, partner 5 µg/mL | 0.963
S. pneumoniae D39V [3], first compound 2 µg/mL, partner 1.5 µg/mL | 0.982
S. pneumoniae D39V [3], first compound 2 µg/mL, partner 3 µg/mL | 0.99
S. pneumoniae D39V [3], first compound 2 µg/mL, partner 6 µg/mL | 0.931
S. pneumoniae D39V [3], first compound 4 µg/mL, partner 1.5 µg/mL | ≥ 1
S. pneumoniae D39V [3], first compound 4 µg/mL, partner 3 µg/mL | 0.971
S. pneumoniae D39V [3], first compound 4 µg/mL, partner 6 µg/mL | 0.932
S. pneumoniae D39V [3], first compound 8 µg/mL, partner 1.5 µg/mL | 0.993
S. pneumoniae D39V [3], first compound 8 µg/mL, partner 3 µg/mL | 0.902
S. pneumoniae D39V [3], first compound 8 µg/mL, partner 6 µg/mL | 0.935

fitness, S. aureus Newman [2], one replicate
Conditions | first compound 0.375 µg/mL | first compound 0.75 µg/mL | first compound 1.5 µg/mL
partner 1.25 µg/mL | 0.919 | 0.918 | 0.949
partner 2.5 µg/mL | 0.951 | 0.937 | 0.98
partner 5 µg/mL | 0.952 | 0.9 | 0.976

Conditions | Bliss interaction score
B. subtilis 168 [4] | -0.0978
S. aureus DSM 20231 | 0.109
S. aureus Newman [5] | 0.0489
S. pneumoniae D39V [6] | 0.0553

Source: the supplement of paper PMC10627819
